The results in this text go back to patent publication US5457106A, “Pyridine derivatives, their production and use” (Takeda Chemical Industries, Ltd., priority 1991, dated 1995).

The subject of assay [1] is ART (antigen-responding T-cell). Put plainly: In vitro ART (antigen-responding T-cell) proliferation test. The class given is cell-based, Lewis rat. The conditions noted are these: Rattus norvegicus, T-cell, read-out: % Inhibition of ART growth.
For assay [2], the system named is brewer's yeast induced pyrexia. Put plainly: Antipyretic activity (brewer's yeast induced pyrexia). The assay is classed as in vivo, rat (DS line). Conditions: orally; for Antipyretic activity, .increment. °C.: at peak time. The method, boiled down:
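Male DS rats (7 weeks, 200-240 g) made febrile by s.c. 15% brewer's yeast 18 h before dosing; only animals at ≥38.5° C used. Compound given orally versus solvent control, with rectal temperature taken by thermistor hourly for 5 h post-dose.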

Assay [3] deals with Rat reversed passive Arthus reaction (skin). Put plainly: Rat reversed passive Arthus reaction (skin) inhibitory activity. The assay is classed as in vivo, rat (Jcl: SD). Conditions: po, orally, read-out: Inhibitory percentage (reversed passive Arthus reaction). The method, then: Rat Reversed Passive Arthus Reaction (skin) Inhibitory Activity This reaction was-induced by using domestic rabbit anti-egg albumin (EA) antiserum according to the method of Chang and Otterness [Chang, Y. -H. and Otterness, I. G.: Eur. J. Pharmacol. 69, 155 (1981)]. Using six Jcl: SD male rats (7 weeks old, weight about 250 g) per one group, the hair was removed from the back under ether anesthesia, 1 ml of 0.5% EA physiological saline was injected […] into the tail vein, and further each 0.1 ml of diluted antiserum (6 mg protein antibody/ml) was injected in the back on both dexter and sinister sides. […] Acceleration of permeability through the vessel by the reaction was measured by injecting 1 ml of 1% Evans blue physiological saline intravenously at three hours after the induction of the reaction. Then, after 30 minutes, the rat was sacrificed by exsanguination. The skin was peeled off and the area of pigment spot (length×breadth, mm^2) was measured.

Assay [4] deals with Mouse phenylquinone writhing. The assay is described as follows: Mouse phenylquinone writhing inhibitory activity. The class given is in vivo, mouse (Slc: ICR). The conditions noted are these: Mus musculus, po, 20 min, 50 mg/kg, orally; read-out: Inhibitory percentage (phenylquinone writhing). The method, boiled down: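 Male ICR mice (4 weeks, 17–24 g) dosed orally with compound suspended in 5% gum arabic. After 30 min, 0.02% phenylquinone (0.1 ml/10 g) given i.p.; writhing and stretching responses counted over 20 min.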

In a further assay the target is T1, cyclooxygenase (Rattus norvegicus, UniProt Q63921).
T1 construct: from tissue; host or cells: platelets in platelet-rich plasma from rat abdominal aorta blood (Jcl:wistar, male)
T1 sequence (Q63921 27-602): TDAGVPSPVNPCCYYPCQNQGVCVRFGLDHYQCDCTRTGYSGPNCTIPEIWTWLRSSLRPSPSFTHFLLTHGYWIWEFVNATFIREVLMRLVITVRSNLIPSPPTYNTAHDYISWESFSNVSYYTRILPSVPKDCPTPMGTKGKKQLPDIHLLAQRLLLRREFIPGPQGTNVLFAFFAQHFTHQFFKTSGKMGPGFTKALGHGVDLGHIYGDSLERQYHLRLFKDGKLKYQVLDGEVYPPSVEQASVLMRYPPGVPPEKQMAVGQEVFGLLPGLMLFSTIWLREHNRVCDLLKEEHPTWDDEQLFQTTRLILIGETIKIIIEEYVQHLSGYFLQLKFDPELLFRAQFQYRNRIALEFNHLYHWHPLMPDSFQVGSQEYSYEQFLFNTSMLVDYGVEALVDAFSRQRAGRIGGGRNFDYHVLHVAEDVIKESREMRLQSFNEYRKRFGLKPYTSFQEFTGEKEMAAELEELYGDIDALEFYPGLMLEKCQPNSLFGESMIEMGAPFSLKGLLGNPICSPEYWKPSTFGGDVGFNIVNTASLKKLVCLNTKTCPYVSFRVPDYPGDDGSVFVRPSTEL
Put plainly: Cyclooxygenase inhibitory activity (HHT formation from arachidonic acid in rat platelet-rich plasma). The assay is classed as cell-based, rat (Jcl:wistar).

Assay [5] deals with Rat carrageenin pedal edema. Put plainly: Rat carrageenin pedal edema inhibitory activity. The assay is classed as in vivo, rat (Jcl: SD). Conditions: Rattus norvegicus, po, 3 h, orally, 3 hours after carrageenin, read-out: Inhibitory percentage (carrageenin pedal edema). In short, it runs like this: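 Male Jcl:SD rats (6 weeks, 160-220 g) received test compound orally as a 5% gum arabic suspension, topped up with water to 5 ml/rat. One hour later 0.05 ml of 1% carrageenin was injected subcutaneously into the right hind foot pad. Edema volume was the foot volume increase 3 hours post-injection.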

For assay [6], the system named is brewer's yeast inflamed rat hind limb foot pad pain threshold. The assay is described as follows: Pain relief test by Randall Celit method. The class given is in vivo. The conditions noted are these: orally. The protocol: Pain Relief Test By Randall Celit Method
Seven to eight male Jcl: […] rats, 5 weeks old, per one group were used. 0.1 ml of 10% brewer's yeast physiological saline suspension was injected subcutaneously in the rat dexter hind limb foot pad to induce inflammation. After three hours, the pain threshold was measured by pressure stimulating pain relief measuring apparatus manufactured by Ugo Basile Company (Cat. No. 7200) using an index of […] pain reflex in the inflammatory limb (dexter hind limb), and this was taken as response threshold value in the inflammatory limb. A test compound was administered after additional 45 minutes orally, and the threshold was measured after one and two hours. The efficacy was determined by comparing threshold of a control group and that of the test compound group. The test compound was suspended in 5% gum arabic solution and the administration volume was 0.5 ml/100 g.

Assay [7] has as its system Mouse acetic acid writhing. Put plainly: Mouse acetic acid writhing inhibitory activity. The assay is classed as in vivo, mouse (Slc: ICR). Conditions: Mus musculus, po, 20 min, orally, read-out: Inhibitory percentage (acetic acid writhing). The method, then: Mouse Acetic Acid Writhing Inhibitory Activity
Ten male Slc: ICR mice, 4 weeks old, per 1 group were used. A test compound was administered orally, and after 30 minutes, 0.1 ml/10 g body weight of physiological saline containing 0.6% acetic acid was injected intraperitoneally. For 20 minutes, writhing (in agony condition) response by administration of acetic acid was counted regarding individual animals. The inhibitory percentage relative to the mean response counts of a control group was calculated regarding respective animals in a test compound administration group. The test compound was suspended in 5% gum arabic solution, and the administration volume was 0.2 ml/10 g.

For a further assay, the system named is ICAM-1. Put plainly: Adhesion protein expression inhibitory activity, ICAM-1. The assay is classed as cell-based. Conditions: 30 μM, human umbilical vascular endothelial cells, TNF-α; 360 min. The method, then:
Adhesion Protein Expression Inhibitory Activity The various concentrations of test compounds were added to the human umbilical cord-derived vascular endothelial cells [sold by Klabo] which were seeded in the gelatin coat plate and the mixture was incubated at 37° C. for 15 minutes. Then, the human tumor necrosis factor-α[TNF-α; sold by Genzyme] was added therein to the final concentration of 1 ng/ml and incubation was carried out at 37° C. for 3 hours for expression of ELAM-1 and for 6 hours for that of ICAM-I. After the reaction, the cells were fixed using glutaraldhyde and the expression amount of ELAM-1 and ICAM-1 was measured by the cell-ELISA method. That is, the expression was determined by […] the adhesion proteins on the cells in the system using anti-ELAM-1 antibody BBA-2 and anti-ICAM-1 antibody BBA4 as the first antibody as well as horseradish peroxidase-labeled rabbit anti-mouse IgG antibody as the second antibody.

The test system of assay [8] is PAF induced respiratory tract constriction. Put plainly: PAF induced respiratory tract constriction inhibitory activity. Conditions: intravenously. The class given is in vivo, guinea pig (Hartley). The text has this:
PAF Induced Respiratory Tract Constriction Inhibitory Activity Male and female Hartley guinea pigs, weighing about 100 g, were used. The guinea pigs were fixed at a dorsal position under urethane anethesia (1.5 g/kg, i.p.). One leg of a cannula (having four legs) was inserted in the trachea and two of the other three legs were bound to the respirator (Harvard apparatus rodent respirator). The remaining one leg (side branch) was bound to the bronchospasm transducer 7.020 (Ugobasile). Under the conditions of 5 to 7 ml of air supply/time, 70 times/min. of supply time and 10 cm H2 O of pulmonary pressure load, the amount of over flow air was recorded on a Rectigraph (Rectigraph-8S, Saneissoki) via the transducer. After Gallamine […] treatment (1 mg/kg, i.v.), PAF was administered intravenously (1.0 μg/kg) and the maximum respiratory tract constriction response was observed after 30 seconds. Under these conditions, the inhibitory activity of the test compounds were examined.

Structures are written as SMILES. Structures can show the parent of a compound that is named as a salt.

As to `CC(C)(C)C(=O)NCCCSc1ccncc1.Cl` [Example 24, 4-[3-(pivaloylamino)propylthio]pyridine hydrochloride], in assay [1], the inhibition at 1 µM amounted to 29% and the inhibition at 10 µM amounted to 35%. In assay [2] (50 mg/kg), the “Antipyretic activity, peak time” value was determined as 2 h and the “Antipyretic activity, .increment. °C.” value was -1.33 °C. The inhibition in vivo at 50 mg/kg in assay [3] stood at 46%. The inhibition in vivo at 50 mg/kg in [4] amounted to 56%.

With `O=C(NCCCSc1ccncc1)C(F)(F)F` [Example 25, 4-[3-(trifluoroacetylamino)propylthio]pyridine hydrochloride], the inhibition at 1 µM in assay [1] worked out at 44%. In [1], the inhibition at 10 µM is -7%. This compound also had an IC50 at cyclooxygenase of 3.4 µM. Further, the inhibition in vivo at 50 mg/kg in assay [3] was determined as 24%; in [4] it was 60%.

With `CC(C)(C)c1ccc(C(=O)NCCCSc2ccncc2)cc1` [Example 32, 4-[3-(4-t-butylbenzoylamino)propylthio]pyridine hydrochloride], in assay [1], the inhibition at 1 µM came out at 43% and the inhibition at 10 µM is 37%. Moreover, the IC50 against cyclooxygenase is 6.5 µM. Besides, in assay [2] (50 mg/kg), the “Antipyretic activity, peak time” value was 1 h and the “Antipyretic activity, .increment. °C.” value was -1.39 °C. Besides, in [3], the inhibition in vivo at 50 mg/kg came out at 41%. Further, the inhibition in vivo at 50 mg/kg in assay [4] turned out to be 63%.

For `CCCCOc1ccc(C(=O)NCCCSc2ccncc2)cc1` [Example 35, 4-[3-(4-n-butoxybenzoylamino)propylthio]pyridine hydrochloride], in assay [1], the inhibition at 1 µM was determined as 18%. Further, the inhibition at 10 µM in assay [1] worked out at 33%. The compound also registered an IC50 on cyclooxygenase of 2.3 µM. Besides, the inhibition in vivo at 50 mg/kg amounted to 30% in assay [3] and 60% in [4].

Compound `O=C(NCCCSc1ccncc1)c1cccnc1` [Example 41, 4-[3-(nicotinoylamino)propylthio]pyridine] displayed an IC50 on cyclooxygenase of 11.3 µM. Besides, the inhibition in vivo at 50 mg/kg in assay [3] was found to be 35%; in [4] it was 73%.

`O=C(NCCCSc1ccncc1)c1ccco1` [Example 53, 4-[3-(2-furoylamino)propylthio]pyridine] displayed an IC50 at cyclooxygenase of 8.6 µM. Besides, the inhibition in vivo at 50 mg/kg in [3] amounted to 21%.

Consider `O=C1c2ccccc2C(=O)N1CSc1ccncc1` [Example 62, 4-(phthalimidomethylthio)pyridine], for which the “Antipyretic activity, peak time” value in assay [2] (50 mg/kg) is 4 h. Also, in assay [2] (50 mg/kg), the “Antipyretic activity, .increment. °C.” value is -1.40 °C. In addition, the inhibition in vivo at 50 mg/kg in assay [3] is 27%; in assay [5], 36%; in assay [4], 55%. For the same compound, in assay [5] (12.5 mg/kg), the inhibition in vivo at 12.5 mg/kg was found to be 20%.

On to `O=C1CSC(=O)N1CSc1ccncc1` [Example 169, 4-(2,4-thiazolidinedionemethylthio)pyridine], for which the “Antipyretic activity, peak time” value in assay [2] (12.5 mg/kg) and in [2] (50 mg/kg) was 2 h each time. In addition, the “Antipyretic activity, .increment. °C.” value in [2] (12.5 mg/kg) was -2.13 °C; in assay [2] (50 mg/kg), -2.43 °C. Further, the inhibition in vivo at 50 mg/kg in assay [5] amounted to 44%; in assay [7] it was 96%. The “% Of Control (pain threshold)” value in assay [6] (50 mg/kg, 1 hour) came out at 215.2 ± 16.1 % Of Control; in assay [6] (50 mg/kg, 2 hours) it was 158.4 ± 26.2 % Of Control; in assay [6] (200 mg/kg, 1 hour), 242 ± 21.9 % Of Control; in [6] (200 mg/kg, 2 hours), 326.1 ± 80.1 % Of Control.

As for `CC1(C)OC(=O)N(CSc2ccncc2)C1=O` [Example 173, 4-(5,5-dimethyloxazolidine-2,4-dione)methylthiopyridine], in [2] (50 mg/kg), the “Antipyretic activity, peak time” value is 2 h. Also, the “Antipyretic activity, .increment. °C.” value in assay [2] (50 mg/kg) is -2.02 °C. In addition, the inhibition in vivo at 50 mg/kg in [5] was found to be 23%; in [7] it was 75%. For the same compound, the “% Of Control (pain threshold)” value in assay [6] (200 mg/kg, 1 hour) was 222.7 ± 26.4 % Of Control; in assay [6] (200 mg/kg, 2 hours) it was 165.8 ± 24.9 % Of Control. In addition, in the assay on ICAM-1, the “Expression Inhibitory Potency, ICAM-1” value is 35%.

For `Cl.Cl.O=c1c2ccccc2n(CSc2ccncc2)c(=O)n1CCCCSc1ccncc1` [Example 199, 1-(4-pyridylthio)methyl-3-[4-(4-pyridylthio)butyl]quinazoline-2,4(1H,3H)-dione dihydrochloride], the “Inhibitory activity (PAF induced respiratory tract constriction)” value in [8] (3 mg/kg) was 53.5%.

Consider `CCC(=O)N(CCCCSc1ccncc1)c1ccccc1N(CCCCSc1ccncc1)C(=O)CC.Cl.Cl` [Example 203, 1,2-bis[N-[4-(4-pyridylthio)butyl]-N-propionylamino]benzene dihydrochloride], for which, in assay [8] (0.3 mg/kg), the “Inhibitory activity (PAF induced respiratory tract constriction)” value is listed as 90.4%.
